Tested on: 186277-243-T-J2-PDC complex spheroid growth
Experiment: Anticancer human tumor 186277-243-T-J2-PDC patient-derived colon adenocarcinoma cell line growth inhibition [AhR]
Conditions: for IC50: curve of first compound; for viability, T/C: stronger effect = lower value
Outline: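 Complex tumor spheroids co-cultured with HUVEC and human MSC stroma; AhR antagonists tested in combination with standard-of-care and investigational agents. Top concentration at or near clinical Cmax (else 10 microM), half-log dilutions; growth expressed as percent test/control.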
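Further: spheroids exposed to compounds for seven days before the viability read.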
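Wherever viability, T/C is given: luminescent signal used as a stand-in for viable cell amount; 100% = DMSO vehicle control wells.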

IC50 (second compound 0.1 µM): > 10 µM | IC50 (second compound 0.316 µM): > 10 µM | IC50 (second compound 1 µM): > 10 µM | IC50 (second compound 3.16 µM): > 10 µM | IC50 (second compound 10 µM): < 0.0316 µM
SMILES: CC(C)c1c(-c2ccccc2)nc2c(C#N)c[nH]n2c1=O + Cc1cncc(-c2nc(NCCc3c[nH]c4ccccc34)c3ncn(C(C)C)c3n2)c1
viability, T/C (second compound 0.1 µM, first compound 0.0316 µM): 127% | viability, T/C (second compound 0.1 µM, first compound 0.1 µM): 105% | viability, T/C (second compound 0.1 µM, first compound 0.316 µM): 101% | viability, T/C (second compound 0.1 µM, first compound 1 µM): 98.3% | viability, T/C (second compound 0.1 µM, first compound 3.16 µM): 95.8% | viability, T/C (second compound 0.1 µM, first compound 10 µM): 96.5% | viability, T/C (second compound 0.316 µM, first compound 0.0316 µM): 102% | viability, T/C (second compound 0.316 µM, first compound 0.1 µM): 99.6% | viability, T/C (second compound 0.316 µM, first compound 0.316 µM): 101% | viability, T/C (second compound 0.316 µM, first compound 1 µM): 98.8% | viability, T/C (second compound 0.316 µM, first compound 3.16 µM): 95% | viability, T/C (second compound 0.316 µM, first compound 10 µM): 108% | viability, T/C (second compound 1 µM, first compound 0.0316 µM): 107% | viability, T/C (second compound 1 µM, first compound 0.1 µM): 101% | viability, T/C (second compound 1 µM, first compound 0.316 µM): 98.5% | viability, T/C (second compound 1 µM, first compound 1 µM): 103% | viability, T/C (second compound 1 µM, first compound 3.16 µM): 94.4% | viability, T/C (second compound 1 µM, first compound 10 µM): 102% | viability, T/C (second compound 3.16 µM, first compound 0.0316 µM): 109% | viability, T/C (second compound 3.16 µM, first compound 0.1 µM): 111% | viability, T/C (second compound 3.16 µM, first compound 0.316 µM): 96.3% | viability, T/C (second compound 3.16 µM, first compound 1 µM): 96.1% | viability, T/C (second compound 3.16 µM, first compound 3.16 µM): 108% | viability, T/C (second compound 3.16 µM, first compound 10 µM): 102% | viability, T/C (second compound 10 µM, first compound 0.0316 µM): 26% | viability, T/C (second compound 10 µM, first compound 0.1 µM): 22.7% | viability, T/C (second compound 10 µM, first compound 0.316 µM): 20.5% | viability, T/C (second compound 10 µM, first compound 1 µM): 25.6% | viability, T/C (second compound 10 µM, first compound 3.16 µM): 23.9% | viability, T/C (second compound 10 µM, first compound 10 µM): 34.4%

Reference: PubChem BioAssay AID1918991 (Molecular Pharmacology Branch, DTP, NCI, 2023)
